Tests used:
[1] = system: mouse model of ovalbumin (OVA)-induced asthma; experiment: Mouse model of ovalbumin (OVA)-induced asthma: MCh-induced AHR (Penh) and eosinophil infiltrate in BALF; assay type: in vivo; conditions: single IV dose of 10 mg/kg at 24 h prior to assessment
Protocol: A mouse model of ovalbumin (OVA)-induced asthma was used to screen GSNOR inhibitors for efficacy against methacholine (MCh)-induced bronchoconstriction/airway hyper-responsiveness. This is a widely used and well characterized model that presents with an acute, allergic asthma phenotype with similarities to human asthma. Efficacy of GSNOR inhibitors was assessed using a protocol in which GSNOR inhibitors were administered after OVA sensitization and airway challenge, and prior to challenge with MCh. Bronchoconstriction in response to challenge with increasing doses of MCh was assessed using whole body plethysmography (Penh; Buxco). The amount of eosinophil infiltrate into the bronchoaveolar lavage fluid (BALF) was also determined as a measure of lung inflammation. The effects of GSNOR inhibitors were compared to vehicles and to Combivent (inhaled; IH) as the positive control.
OVA (500 μg/ml) in PBS was mixed with equal volumes of 10% (w/v) aluminum potassium sulfate in distilled water and incubated for 60 min. at room temperature after adjustment to pH 6.5 using 10 N NaOH. After centrifugation at 750×g for 5 min, the OVA/alum pellet was resuspended to the original volume in distilled water. Mice received an intraperitoneal (IP) injection of 100 μg OVA (0.2 mL of 500 μg/mL in normal saline) complexed with alum on day 0. Mice were anesthetized by IP injection of a 0.2-mL mixture of ketamine and xylazine (0.44 and 6.3 mg/mL, respectively) in normal saline and were placed on a board in the supine position. Two hundred fifty micrograms (100 μl of a 2.5 mg/ml) of OVA (on day 8) and 125 μg (50 μl of 2.5 mg/ml) OVA (on days 15, 18, and 21) were placed on the back of the tongue of each animal.
In vivo airway responsiveness to methacholine was measured 24 h after the last OVA challenge in conscious, freely moving, spontaneously breathing mice with whole body plethysmography using a Buxco chamber (Wilmington, N.C.). […] The degree of bronchoconstriction was expressed as enhanced pause (Penh), a calculated dimensionless value, which correlates with the measurement of airway resistance, impedance, and intrapleural pressure in the same mouse. Penh readings were taken and averaged for 4 min. after each nebulization challenge. Penh is calculated as follows: Penh=[(Te/Tr−1)×(PEF/PIF)], where Te is expiration time, Tr is relaxation time, PEF is peak expiratory flow, and PIF is peak inspiratory flow×0.67 coefficient. […]
After measurement of airway hyper-reactivity, the mice were exsanguinated by cardiac puncture, and then BALF was collected from either both lungs or from the right lung after tying off the left lung at the mainstem bronchus. Total BALF cells were counted from a 0.05 mL aliquot, and the remaining fluid was centrifuged at 200×g for 10 min at 4° C. […]

[2] = Mouse pharmacokinetic (PK) study; assay type: in vivo, male BALB/c mice; conditions: male, BALB/c, plasma, po, 10 mg/kg, IV 2 mg/kg, read-out: oral bioavailability (% F)
Description: The mouse was used to determine the pharmacokinetics of compounds of the invention. This species is widely used to assess the bioavailability of compounds by administering both oral (PO) and intravenous (IV) test articles. Efficacy of the compounds of the invention was compared by assessing plasma exposure in male BALB/c mice either via IV or PO administration at the times of peak activity.
Compounds of the invention were reconstituted in a phosphate buffered saline (PBS)/10% Solutol (HS 15) clear solution resulting in a concentration of 0.2 mg/mL and administered to mice (2 mg/kg) as a single IV dose. Animals were dosed via the lateral tail vein. Blood samples were collected at designated time points (0.083, 0.25, 0.5, 1, 2, 4, 8, 16, 24 hours) by cardiac puncture under isoflurane anesthesia (up to 1 mL blood per animal). The blood was collected into tubes containing Li-Heparin. The blood samples were kept on ice until centrifugation within approximately 30 minutes of collection. The plasma was transferred into labeled polypropylene tubes and frozen at −70° C. until analyzed by LC/MS/MS.
The compounds of the invention were reconstituted in 40% Propylene Glycol/40% Propylene Carbonate/20% of a 5% Sucrose clear solution resulting in a concentration of 2 mg/mL and administered to mice (10 mg/kg) as a single oral dose via gavage. Blood samples were collected at 0.25, 0.5, 1, 2, 4, 8, 12, 16, 20 and 24 hours post dose by cardiac puncture under isoflurane anesthesia. The blood was collected in tubes containing Li-Heparin. […] The plasma was transferred into labeled polypropylene tubes and frozen at −70° C. until analyzed by LC/MS/MS.
Plasma samples at each timepoint were analyzed using a LC-MS/MS with a lower limit of quantification (LLOQ) of 1 ng/mL. Plasma was analyzed to determine the amount of the compound of the invention in each sample and regression curves generated for each compounds of the invention in the relevant matrixes. […]
In addition to the above PK parameters, bioavailability (% F) was calculated.

bioavailability [2]: > 9%
SMILES: Oc1ccc2nc(-c3ccc(-c4nnn[nH]4)cc3)ccc2c1 [Example 4, 2-(4-(1H-tetrazol-5-yl)phenyl)quinolin-6-ol]
decrease of eosinophil infiltration into BALF [1]: 20 % of vehicle control | decrease of MCh-induced AHR ([1]; p<0.05): 19 % of vehicle control
